The text below walks through data of ChEMBL document CHEMBL5126521, “Analgesic Opioid Ligand Discovery Based on Nonmorphinan Scaffolds Derived from Natural Sources” (J Med Chem, 2022).

The nature of data set [1]: Degradation half life in rat brain homogenate. The class given is ADME, tissue-based.
Data set [2] has as its system Mus musculus. In words: Antinociceptive activity in Swiss albino mouse assessed tail flick response in warm water administered icv. The class given is functional.
Data set [3] in a line: Stability in rat brain homogenate assessed as compound remaining measured after 90 mins relative to control. As to conditions: read-out: Stability. The class given is ADME, tissue-based.
Data set [4] is described as follows: Stability in mouse serum assessed as half life. The class given is ADME, cell-free.
Data set [5] is described as follows: Stability in rat brain homogenate assessed as half life. The class given is ADME, tissue-based.
In data set [6] the target is Delta-type opioid receptor (Mus musculus, UniProt P32300). Description: Displacement of [3H]DPDPE from mouse DOP stably expressed in CHO cell membrane. The class given is cell membranes. For orientation: Displacement assays read how much labelled ligand stays bound in the presence of the test substance.
Delta-type opioid receptor (Mus musculus, UniProt P32300), sequence (P32300 whole entry): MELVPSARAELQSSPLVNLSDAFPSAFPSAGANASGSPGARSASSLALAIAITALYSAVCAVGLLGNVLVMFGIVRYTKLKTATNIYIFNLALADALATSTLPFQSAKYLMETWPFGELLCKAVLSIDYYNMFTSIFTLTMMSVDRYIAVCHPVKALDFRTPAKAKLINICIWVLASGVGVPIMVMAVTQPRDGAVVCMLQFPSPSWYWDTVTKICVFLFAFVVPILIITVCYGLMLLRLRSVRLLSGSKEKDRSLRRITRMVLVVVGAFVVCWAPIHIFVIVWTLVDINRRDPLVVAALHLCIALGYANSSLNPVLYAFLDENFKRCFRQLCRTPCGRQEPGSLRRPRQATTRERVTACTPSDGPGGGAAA
Data set [7] has as its target T1, Kappa-type opioid receptor (Rattus norvegicus, UniProt P34975). In words: Displacement of [3H]diprenorphine from rat KOP stably expressed in CHO cell membrane. The class given is cell membranes.
In data set [8] the target is Kappa-type opioid receptor (Homo sapiens, UniProt P41145). Description: Antagonist activity at human KOP stably expressed in CHO cell membrane assessed as [35S]GTPgammaS binding. The class given is functional, cell membranes.
Kappa-type opioid receptor (Homo sapiens, UniProt P41145), sequence (P41145 whole entry): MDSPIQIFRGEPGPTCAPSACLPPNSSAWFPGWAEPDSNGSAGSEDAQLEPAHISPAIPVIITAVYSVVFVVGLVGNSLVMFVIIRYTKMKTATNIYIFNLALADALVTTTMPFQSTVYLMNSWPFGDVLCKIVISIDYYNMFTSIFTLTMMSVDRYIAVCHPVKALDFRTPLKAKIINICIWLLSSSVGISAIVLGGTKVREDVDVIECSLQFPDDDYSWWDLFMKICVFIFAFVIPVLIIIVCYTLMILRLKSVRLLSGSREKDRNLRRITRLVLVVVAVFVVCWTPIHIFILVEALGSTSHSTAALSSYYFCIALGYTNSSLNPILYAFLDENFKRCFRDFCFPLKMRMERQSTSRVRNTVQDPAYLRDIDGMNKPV
For data set [9], the target named is T2, Mu-type opioid receptor (Homo sapiens, UniProt P35372). Description: Antagonist activity at human MOP stably expressed in CHO cell membrane assessed as [35S]GTPgammaS binding. The class given is functional, cell membranes.
T2 sequence (P35372 whole entry): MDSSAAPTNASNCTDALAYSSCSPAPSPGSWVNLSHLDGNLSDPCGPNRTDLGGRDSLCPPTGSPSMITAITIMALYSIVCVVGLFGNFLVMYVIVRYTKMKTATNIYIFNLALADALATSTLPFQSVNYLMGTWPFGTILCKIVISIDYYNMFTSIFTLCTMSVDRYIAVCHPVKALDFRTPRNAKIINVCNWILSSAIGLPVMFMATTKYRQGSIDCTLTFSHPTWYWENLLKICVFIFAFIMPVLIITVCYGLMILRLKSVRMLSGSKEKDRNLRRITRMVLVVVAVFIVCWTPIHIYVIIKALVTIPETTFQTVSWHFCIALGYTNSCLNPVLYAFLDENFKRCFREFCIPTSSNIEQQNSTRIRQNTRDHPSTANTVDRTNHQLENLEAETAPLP
In data set [10] the test system is Mus musculus. In words: Antinociceptive activity in icv dosed C57BL/6J mouse assessed as tail withdrawal latency from warm water. The class given is functional.
Data set [11] concerns the target T1, Kappa-type opioid receptor. Description: Inhibition of Wistar rat brain membrane KOP. The class given is cell membranes.
Data set [12] relates to Mus musculus. In words: Antinociceptive activity in mouse administered sc by tail pressure test. The class given is functional.
The subject of data set [13] is Mus musculus. Description: Antinociceptive activity in mouse administered icv. The class given is functional.
The target of data set [14] is T3, Mu-type opioid receptor (Cavia porcellus, UniProt P97266). Description: Antagonist activity at guinea pig ileum MOP. The class given is functional, tissue-based.
T3 sequence (P97266 whole entry): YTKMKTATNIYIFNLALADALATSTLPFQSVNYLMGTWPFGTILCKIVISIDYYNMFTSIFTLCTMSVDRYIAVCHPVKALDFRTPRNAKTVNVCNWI
Data set [15] has as its system Mus musculus. In words: Antinociceptive activity in mouse administered po by tail pressure test. The class given is functional.
Data set [16] deals with T4, Mu-type opioid receptor (Rattus norvegicus, UniProt P33535). In words: Displacement of [3H]DAMGO from rat MOP stably expressed in CHO cell membrane. The class given is cell membranes.
T4 sequence (P33535 whole entry): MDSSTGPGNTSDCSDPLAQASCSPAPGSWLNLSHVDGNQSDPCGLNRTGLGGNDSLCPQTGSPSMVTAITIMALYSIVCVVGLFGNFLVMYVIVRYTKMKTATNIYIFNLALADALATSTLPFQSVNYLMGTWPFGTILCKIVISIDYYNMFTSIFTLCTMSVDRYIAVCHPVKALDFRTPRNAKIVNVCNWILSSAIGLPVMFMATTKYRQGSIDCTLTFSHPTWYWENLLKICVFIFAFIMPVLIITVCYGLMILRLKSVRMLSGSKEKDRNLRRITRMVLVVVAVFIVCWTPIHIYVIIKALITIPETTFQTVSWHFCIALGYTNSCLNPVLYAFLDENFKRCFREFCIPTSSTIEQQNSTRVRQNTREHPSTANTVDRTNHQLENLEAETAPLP
Data set [17] concerns the target Delta-type opioid receptor (Rattus norvegicus, UniProt P33533). Description: Agonist activity at recombinant rat DOP stably expressed in CHO-K1 cell membrane assessed as [35S]GTPgammaS binding. The class given is functional, cell membranes. (In general: Binding of GTPγS marks nucleotide exchange on a G protein.)
The target in data set [18] is T4, Mu-type opioid receptor. Description: Agonist activity at recombinant rat MOP stably expressed in CHO-K1 cell membrane assessed as [35S]GTPgammaS binding. The class given is functional, cell membranes.
Data set [19] deals with Mus musculus. Description: Antinociceptive activity in po dosed mouse by tail flick assay. The class given is functional.
Data set [20] can be described thus: Toxicity in sc dosed mouse assessed as antinociceptive activity tolerance. The class given is organism-based. The following applies: in vivo.
Data set [21] can be described thus: Displacement of [3H]DPDPE from guinea pig brain membrane DOP incubated for 2.5 hr by scintillation counter analysis. The class given is cell membranes, Cavia porcellus.
Data set [22] deals with T3, Mu-type opioid receptor. Description: Displacement of [3H]DAMGO from guinea pig brain membrane MOP incubated for 1 hr by scintillation counter analysis. The class given is cell membranes.
Data set [23] in a line: Toxicity in po dosed mouse assessed as antinociceptive activity tolerance by tail flick assay. The class given is organism-based. The following applies: in vivo. (In general: Hot-plate and tail-flick tests time the reaction to a heat stimulus.)
Data set [24] concerns Mus musculus. Description: Antinociceptive activity in sc dosed mouse. The class given is functional.
Data set [25] has as its target Kappa-type opioid receptor (Cavia porcellus, UniProt P41144). Description: Displacement of [3H]U69593 from guinea pig brain membrane KOP incubated for 1 hr by scintillation counter analysis. The class given is cell membranes.
Data set [26] deals with Mus musculus. In words: Antinociceptive activity in mouse administered IT by tail pressure test. The class given is functional.
The species named for data set [27] is Mus musculus. Description: Antinociceptive activity in mouse by tail pressure test. The class given is functional.
The next data set deals with Rattus norvegicus. Description: Antinociceptive activity in Sprague-Dawley rat assessed as tail flick response in warm water administered iv. The class given is functional.
Data set [28] addresses T2, Mu-type opioid receptor. Description: Agonist activity at MOP in human SH-SY5Y cells assessed as forskolin stimulated cAMP accumulation incubated for 30 mins by Biotrak-EIA kit method. The class given is functional, cell-based.
In data set [29] the target is T2, Mu-type opioid receptor. Description: Binding affinity to MOP (unknown origin).
Data set [30] deals with Mus musculus. In words: Antinociceptive activity in Kunming mouse assessed as heat paw withdrawal measured after 10 secs administered icv. The class given is functional. As to conditions: time 10 sec, 10 s.
In data set [31] the target is Delta-type opioid receptor (Homo sapiens, UniProt P41143). Description: Binding affinity to DOP (unknown origin).
Delta-type opioid receptor (Homo sapiens, UniProt P41143), sequence (P41143 whole entry): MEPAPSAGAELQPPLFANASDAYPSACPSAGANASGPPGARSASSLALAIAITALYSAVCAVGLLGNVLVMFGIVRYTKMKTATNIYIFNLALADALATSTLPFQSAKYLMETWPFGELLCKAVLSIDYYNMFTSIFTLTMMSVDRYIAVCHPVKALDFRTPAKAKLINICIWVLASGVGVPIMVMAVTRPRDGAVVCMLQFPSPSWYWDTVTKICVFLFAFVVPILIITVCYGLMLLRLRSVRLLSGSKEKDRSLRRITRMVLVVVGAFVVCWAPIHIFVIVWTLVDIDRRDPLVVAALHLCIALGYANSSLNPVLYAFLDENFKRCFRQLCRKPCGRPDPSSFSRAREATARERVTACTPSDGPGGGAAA
Data set [32] has as its system Mus musculus. In words: Antinociceptive activity in ip dosed mouse assessed as tail flick latency. The class given is functional.

Bridge positions count the residues as written; N and C are the ends. Square brackets hold non-standard residues; d marks the D form. Peptide text beside a SMILES is read from it. ξ: configuration not given here. ξGly(octyl) = CCCCCCCCC(N)C(=O)O

T1 sequence (P34975 whole entry): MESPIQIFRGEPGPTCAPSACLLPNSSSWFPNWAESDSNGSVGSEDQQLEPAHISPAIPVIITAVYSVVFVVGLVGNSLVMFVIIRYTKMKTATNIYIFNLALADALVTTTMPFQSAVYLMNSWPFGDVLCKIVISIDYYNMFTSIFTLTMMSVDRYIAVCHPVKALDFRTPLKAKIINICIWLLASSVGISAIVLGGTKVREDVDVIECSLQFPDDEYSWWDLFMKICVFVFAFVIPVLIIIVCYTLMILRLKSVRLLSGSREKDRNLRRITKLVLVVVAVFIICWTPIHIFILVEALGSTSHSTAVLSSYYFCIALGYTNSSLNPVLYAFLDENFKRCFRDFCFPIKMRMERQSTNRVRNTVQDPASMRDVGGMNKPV
Kappa-type opioid receptor (Cavia porcellus, UniProt P41144), sequence (P41144 whole entry): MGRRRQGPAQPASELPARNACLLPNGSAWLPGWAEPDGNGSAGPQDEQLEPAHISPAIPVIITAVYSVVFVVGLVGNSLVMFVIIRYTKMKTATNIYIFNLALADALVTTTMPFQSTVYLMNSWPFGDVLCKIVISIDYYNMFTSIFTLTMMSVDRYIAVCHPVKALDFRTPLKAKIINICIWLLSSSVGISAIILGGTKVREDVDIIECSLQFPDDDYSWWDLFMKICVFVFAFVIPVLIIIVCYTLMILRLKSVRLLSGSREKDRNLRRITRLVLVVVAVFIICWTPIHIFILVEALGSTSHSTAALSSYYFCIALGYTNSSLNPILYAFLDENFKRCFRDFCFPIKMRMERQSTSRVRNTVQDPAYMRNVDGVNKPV
Delta-type opioid receptor (Rattus norvegicus, UniProt P33533), sequence (P33533 whole entry): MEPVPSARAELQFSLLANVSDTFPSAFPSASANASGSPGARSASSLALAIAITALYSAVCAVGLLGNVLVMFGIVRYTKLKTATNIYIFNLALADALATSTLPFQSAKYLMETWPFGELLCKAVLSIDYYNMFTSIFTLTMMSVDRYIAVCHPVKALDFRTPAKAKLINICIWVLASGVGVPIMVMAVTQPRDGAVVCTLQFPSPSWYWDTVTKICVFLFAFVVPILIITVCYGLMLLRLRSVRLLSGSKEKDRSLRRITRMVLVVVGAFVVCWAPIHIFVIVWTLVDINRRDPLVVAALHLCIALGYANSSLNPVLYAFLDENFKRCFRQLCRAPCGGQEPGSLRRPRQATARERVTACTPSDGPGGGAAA

By half-life is commonly meant the time in which the quantity being followed falls by half. Regarding `NC(=O)[C@H](Cc1ccccc1)NC(=O)[C@H](Cc1ccccc1)NC(=O)[C@@H]1CCCN1C(=O)[C@@H](N)Cc1ccc(O)cc1` [ENDOMORPHIN 2], the half-life in data set [1] was 0.75 min; in data set [4], 8.2 min; in [5], 15.9 min. Also, in the data set with Mus musculus [2], the ED50 was found to be 6.88 nmol. Further, in [3], the remaining at […] turned out to be 0%.

Usually Ki stands for a measure of affinity in units of concentration, obtained from inhibition or displacement. Read a low Ki as higher affinity. For orientation: IC50 means the point on the concentration scale where inhibition reaches its midpoint. Take `C[C@H]1NC(=O)[C@H](Cc2ccccc2)NC(=O)[C@H]2CCCN2C(=O)[C@H](Cc2ccccc2)NC1=O`: the inhibition constant (Ki) in data set [6] stood at 10000 nM; in [7] it was 1720 nM. The figures for the half-inhibitory concentration (IC50) (in [8]; at Mu-type opioid receptor [9]) were 922 nM and 1100 nM, respectively. Besides, the ED50 in the data set with Mus musculus [10] amounted to 0.28 nmol.

For the molecule `NC(=O)[C@@H]1CC(=O)NCCCC[C@@H](NC(=O)[C@@H](N)Cc2ccc(O)cc2)C(=O)N[C@@H](Cc2ccccc2)C(=O)N[C@@H](Cc2ccccc2)C(=O)N1` (H-Y[dK]FFD-NH2; lactam 2-5), the IC50 in data set [11] was determined as 2.36 nM. Further, in the data set on Mus musculus [2], the ED50 turned out to be 0.06 nmol.

`N=C(N)NCCC[C@@H](NC(=O)[C@@H](N)Cc1ccc(O)cc1)C(=O)N[C@@H](Cc1ccccc1)C(N)=O`: the ED50 in the data set on Mus musculus [12] was 1 µmol/kg; in the data set with Mus musculus [13] it was 210 pmol; in the data set with Mus musculus [15], 103 µmol/kg. The same molecule gave an IC50 against Mu-type opioid receptor [14] of 240 nM.

Turning to `C[C@@H]1NC(=O)[C@H]2CCCN2C(=O)[C@H](Cc2ccccc2)NC(=O)[C@@H](Cc2c[nH]c3ccccc23)NC1=O`, the inhibition constant Ki was determined as 10000 nM in [6], 167 nM in [7] and 299 nM at Mu-type opioid receptor [16]. Besides, the half-maximal inhibitory concentration (IC50) was 397 nM in [8] and 1470 nM on Mu-type opioid receptor [9]. For the same molecule, in the data set on Mus musculus [10], the ED50 was determined as 1.04 nmol.

Usually EC50 stands for the concentration needed to bring the measured effect to its halfway point. On to `CC[C@@H]1CN2CC[C@]3(O)c4c(ccc(F)c4OC)N[C@@H]3[C@@H]2C[C@@H]1/C(=C\OC)C(=O)OC`, for which the concentration for a half-maximal effect (EC50) in data set [17] was 61 nM; at Mu-type opioid receptor [18], 18 nM. For the same molecule, the ED50 in the data set on Mus musculus [19] was 0.26 mg/kg; in data set [20], 0.09 mg/kg; in data set [23], 0.45 mg/kg; with Mus musculus [24], 0.06 mg/kg. Besides, the inhibitory constant (Ki) in data set [21] is 7 nM; at Mu-type opioid receptor [22] it was 2.1 nM; in [25] it was 29 nM.

As to `N=C(N)NCCC[C@@H](NC(=O)[C@@H](N)Cc1ccc(O)cc1)C(=O)N[C@@H](Cc1ccccc1)C(=O)NCC(=O)O` (H-Y[dR]FG-OH), the ED50 in the data set on Mus musculus [13] turned out to be 10.3 pmol; with Mus musculus [26], 1 pmol; in the data set listed under Mus musculus [27], 5.8 pmol. This molecule also gave an IC50 against Mu-type opioid receptor [14] of 10.8 nM.

With `CCCCCCCCC(N)C(=O)N[C@@H](Cc1ccc(O)cc1)C(=O)N1CCC[C@H]1C(=O)N[C@@H](Cc1c[nH]c2ccccc12)C(=O)N[C@@H](Cc1ccccc1)C(N)=O` (some centres not stated) (H-[ξGly(octyl)]YPWF-NH2), the ED50 with Rattus norvegicus is 1.2 µmol/kg. Besides, at Mu-type opioid receptor [28], the EC50 was determined as 31.4 nM.

`COC(=O)[C@H](Cc1ccccc1)NC(=O)[C@H](Cc1ccccc1)NC(=O)[C@@H]1CCCN1C(=O)[C@@H](N)Cc1ccc(O)cc1`: the inhibition constant Ki at Mu-type opioid receptor [29] was 9.07 nM; in [31], more than 10000 nM. Besides, the ED50 in the data set with Mus musculus [30] amounted to 3 nmol. Moreover, the figures for the half-life in [4] and in data set [5] were 30.1 min and 47.6 min, respectively.

As for `COC(=O)[C@@H]1C[C@H](O[C@@H]2CCCCO2)C(=O)[C@H]2[C@@]1(C)CC[C@H]1C(=O)O[C@H](c3ccoc3)C[C@]21C`, the ED50 with Mus musculus [32] was determined as 1.4 mg/kg.

For the molecule `C[C@@H]1NC(=O)[C@@H](Cc2c[nH]c3ccccc23)NC(=O)[C@H](Cc2ccccc2)NC(=O)[C@H]2CCCN2C1=O`, the inhibition constant (Ki) in [7] is 3.07 nM. Also, the half-inhibitory concentration (IC50) in data set [8] is 0.81 nM; on Mu-type opioid receptor [9], 8.08 nM. Moreover, in the data set on Mus musculus [10], the ED50 was found to be 1.99 nmol.
